According to patent US10961228B2, “JAK1 selective inhibitors” (AstraZeneca AB, priority 2017, dated 2021):

How the values were obtained:
[1] = biological target: recombinant JAK2 (amino acids 831-1132) (Homo sapiens (Human), UniProt O60674); test: Enzyme inhibition studies, JAK2 (5 mM ATP, Caliper); format: biochemical
Protocol: (§1) JAK enzyme was expressed as N-terminal GST fusion in insect cells and purified by glutathione-affinity and size-exclusion chromatographies. Enzymes were assayed at their approximated high end of physiological ATP concentration of 5 mM, in the presence of inhibitor dosed at 30, 3, 0.3, 0.03, 0.003 and 0 μM final test concentrations.
(§2) Phosphorylated and unphosphotylated peptides were separated and quantified by a Caliper LC3000 system (Caliper Life Sciences, MA) for calculating percent inhibition.

[2] = system: IL-13 induced STAT6 promotor luciferase reporter in U937 monocytes (U937-STAT6-Luc); test: Cellular interleukin (IL-13) induced JAK-STAT6-luciferase assay (pSTAT6); format: cell-based; conditions: Homo sapiens, U-937; IL-13 induced STAT6-luciferase, U937-STAT6-Luc cells
Protocol: Cells were harvested by centrifugation at 250 g for 5 min and resuspended in Assay buffer (20 mM HEPES, 1×HBSS and 0.1% BSA) to 1000 cells pr μl. For stimulation of cells was used interleukin (IL-13) also dissolved in Assay buffer to […]. […] Test and control compounds were applied to assay plates (low vol white 384-well plates) in serial dilutions from 10 mM to 0.5 nM at 5 nl pr well in DMSO.
To each well was added 4 μl cells and 4 μl interleukin (IL-13) and the plates were sealed and incubated at 37° C. for 4½ h and then at room temperature for 30 min. The assay was developed by addition of 4 μl pr well of SteadyGlo (Promega) and after […] the plates were read at an Envision plate reader with luminescence filter.

[3] = biological target: recombinant JAK3 (amino acids 781-1124) (Homo sapiens (Human), UniProt P52333); test: Enzyme inhibition studies, JAK3 (5 mM ATP, Caliper); format: biochemical
Protocol: as §1, §2

[4] = biological target: recombinant JAK1 (amino acids 866-1154) (Homo sapiens (Human), UniProt P23458); test: Enzyme inhibition studies, JAK1 (5 mM ATP, Caliper); format: biochemical
Protocol: as §1, §2

Sequence of recombinant JAK1 (amino acids 866-1154) (P23458 866-1154): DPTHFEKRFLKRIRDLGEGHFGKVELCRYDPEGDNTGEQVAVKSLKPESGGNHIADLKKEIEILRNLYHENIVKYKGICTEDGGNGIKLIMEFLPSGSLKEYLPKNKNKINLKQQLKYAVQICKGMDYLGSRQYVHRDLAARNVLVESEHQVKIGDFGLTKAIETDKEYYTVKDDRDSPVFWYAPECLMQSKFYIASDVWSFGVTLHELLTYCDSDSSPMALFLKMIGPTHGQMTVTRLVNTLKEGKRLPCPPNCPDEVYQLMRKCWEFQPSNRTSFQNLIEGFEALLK
Sequence of recombinant JAK2 (amino acids 831-1132) (O60674 831-1132): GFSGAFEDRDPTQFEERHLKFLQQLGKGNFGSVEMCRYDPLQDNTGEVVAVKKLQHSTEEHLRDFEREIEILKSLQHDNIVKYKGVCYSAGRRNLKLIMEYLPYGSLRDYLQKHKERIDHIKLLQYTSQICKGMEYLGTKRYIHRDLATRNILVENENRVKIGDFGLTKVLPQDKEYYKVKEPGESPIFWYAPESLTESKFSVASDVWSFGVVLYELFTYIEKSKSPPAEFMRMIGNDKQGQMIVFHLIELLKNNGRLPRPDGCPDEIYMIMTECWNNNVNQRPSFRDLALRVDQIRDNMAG
Sequence of recombinant JAK3 (amino acids 781-1124) (P52333 781-1124): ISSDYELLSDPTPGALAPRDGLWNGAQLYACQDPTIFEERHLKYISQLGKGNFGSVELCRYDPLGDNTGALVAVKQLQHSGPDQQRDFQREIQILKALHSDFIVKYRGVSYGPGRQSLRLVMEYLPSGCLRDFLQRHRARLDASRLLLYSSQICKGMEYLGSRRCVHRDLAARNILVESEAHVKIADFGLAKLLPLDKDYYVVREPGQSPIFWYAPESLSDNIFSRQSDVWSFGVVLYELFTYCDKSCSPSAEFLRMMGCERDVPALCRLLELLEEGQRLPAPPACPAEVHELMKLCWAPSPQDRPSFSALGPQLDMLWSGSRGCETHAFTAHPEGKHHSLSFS

Q: `CC[C@@H](C(=O)Nc1cccc2c(-c3nc(Nc4cccc(S(C)(=O)=O)c4F)ncc3C)c[nH]c12)N1C[C@@H](C)N[C@H](C)C1` [Example 27, (S)-2-((3R,5R)-3,5-dimethylpiperazin-1-yl)-N-(3-(2-((2-fluoro-3-(methylsulfonyl)phenyl)amino)-5-methylpyrimidin-4-yl)-1H-indol-7-yl)butanamide] was tested. Which IC50 [1] did it give?
A: 162 nM

Q: And the IC50 [2]?
A: 41 nM

Q: What about the IC50 [3] of the same compound?
A: > 30000 nM

Q: What about the IC50 [4] of the same compound?
A: < 3 nM

Q: `COC[C@@H](C(=O)Nc1cccc2c(-c3nc(Nc4cccc(S(C)(=O)=O)c4F)ncc3C)c[nH]c12)N1C[C@@H](C)N[C@H](C)C1` [Example 28, (S)-2-((3R,5R)-3,5-dimethylpiperazin-1-yl)-N-(3-(2-((2-fluoro-3-(methylsulfonyl)phenyl)amino)-5-methylpyrimidin-4-yl)-1H-indol-7-yl)-3-methoxypropanamide] was tested. Which IC50 [1] did it give?
A: 7410 nM

Q: What about the IC50 [2] of the same compound?
A: 147 nM

Q: What about the IC50 [3] of the same compound?
A: > 30000 nM

Q: And the IC50 [4]?
A: 45.2 nM

Q: Which IC50 [1] does the source give for `COC[C@H](C(=O)Nc1cccc2c(-c3nc(Nc4cccc(S(C)(=O)=O)c4F)ncc3C)c[nH]c12)N1C[C@@H](C)N[C@H](C)C1` [Example 29, (R)-2-((3R,5R)-3,5-dimethylpiperazin-1-yl)-N-(3-(2-((2-fluoro-3-(methylsulfonyl)phenyl)amino)-5-methylpyrimidin-4-yl)-1H-indol-7-yl)-3-methoxypropanamide] here?
A: 1200 nM

Q: And the IC50 [2]?
A: 39.9 nM

Q: And the IC50 [3]?
A: > 30000 nM

Q: And the IC50 [4]?
A: < 3 nM

Q: Which results are given for `CC[C@@H](C(=O)Nc1cccc2c(-c3nc(Nc4cccc(S(C)(=O)=O)c4F)ncc3F)c[nH]c12)N1C[C@@H](C)N[C@H](C)C1` [Example 30, (S)-2-((3R,5R)-3,5-dimethylpiperazin-1-yl)-N-(3-(5-fluoro-2-((2-fluoro-3-(methylsulfonyl)phenyl)amino)pyrimidin-4-yl)-1H-indol-7-yl)butanamide]?
A: IC50 [1]: 1160 nM; IC50 [2]: 72 nM; IC50 [3]: > 30000 nM; IC50 [4]: 14.2 nM

Q: Which results are given for `CC[C@H](C(=O)Nc1cccc2c(-c3nc(Nc4cccc(S(C)(=O)=O)c4F)ncc3F)c[nH]c12)N1C[C@@H](C)N[C@H](C)C1` [Example 31, (R)-2-((3R,5R)-3,5-dimethylpiperazin-1-yl)-N-(3-(5-fluoro-2-((2-fluoro-3-(methylsulfonyl)phenyl)amino)pyrimidin-4-yl)-1H-indol-7-yl)butanamide]?
A: IC50 [1]: 1790 nM; IC50 [2]: 74 nM; IC50 [3]: > 30000 nM; IC50 [4]: 6.4 nM

Q: `COC[C@@H](C(=O)Nc1cccc2c(-c3nc(Nc4cccc(S(C)(=O)=O)c4F)ncc3F)c[nH]c12)N1C[C@@H](C)N[C@H](C)C1` [Example 32] was tested. Which IC50 [1] did it give?
A: > 30000 nM

Q: And the IC50 [2]?
A: 933 nM

Q: And the IC50 [3]?
A: > 30000 nM

Q: And the IC50 [4]?
A: 482 nM

Q: `COC[C@H](C(=O)Nc1cccc2c(-c3nc(Nc4cccc(S(C)(=O)=O)c4F)ncc3F)c[nH]c12)N1C[C@@H](C)N[C@H](C)C1` [Example 33, (R)-2-((3R,5R)-3,5-dimethylpiperazin-1-yl)-N-(3-(5-fluoro-2-((2-fluoro-3-(methylsulfonyl)phenyl)amino)pyrimidin-4-yl)-1H-indol-7-yl)-3-methoxypropanamide] was tested. Which IC50 [1] did it give?
A: 1930 nM

Q: What about the IC50 [2] of the same compound?
A: 55 nM

Q: And the IC50 [3]?
A: > 30000 nM

Q: What about the IC50 [4] of the same compound?
A: < 3 nM

Q: For `CC[C@@H](C(=O)Nc1cccc2c(-c3nc(Nc4cccc(S(C)(=O)=O)c4F)ncc3C)c[nH]c12)N1CCCN(C)CC1` [Example 36, (S)-N-(3-(2-((2-fluoro-3-(methylsulfonyl)phenyl)amino)-5-methylpyrimidin-4-yl)-1H-indol-7-yl)-2-(4-methyl-1,4-diazepan-1-yl)butanamide], which IC50 [1] is on record?
A: > 30000 nM

Q: What about the IC50 [2] of the same compound?
A: 167 nM

Q: And the IC50 [3]?
A: > 30000 nM

Q: And the IC50 [4]?
A: 70.3 nM

Q: For `CC[C@H](C(=O)Nc1cccc2c(-c3nc(Nc4cccc(S(C)(=O)=O)c4F)ncc3C)c[nH]c12)N1CCCN(C)CC1` [Example 37, (R)-N-(3-(2-((2-fluoro-3-(methylsulfonyl)phenyl)amino)-5-methylpyrimidin-4-yl)-1H-indol-7-yl)-2-(4-methyl-1,4-diazepan-1-yl)butanamide], which IC50 [1] is on record?
A: 968 nM

Q: And the IC50 [2]?
A: 26.9 nM

Q: And the IC50 [3]?
A: > 30000 nM

Q: What about the IC50 [4] of the same compound?
A: < 3 nM

Q: What does the source list for `CC[C@H](C(=O)Nc1cccc2c(-c3nc(Nc4cccc(S(C)(=O)=O)c4F)ncc3F)c[nH]c12)N1CCN(C)CC1` [Example 38]?
A: IC50 [1]: 6870 nM; IC50 [2]: 42.6 nM; IC50 [3]: > 30000 nM; IC50 [4]: 3.3 nM

Q: Which IC50 [1] does the source give for `CC[C@@H](C(=O)Nc1cccc2c(-c3nc(Nc4cccc(S(C)(=O)=O)c4F)ncc3F)c[nH]c12)N1CCN(C)CC1` [Example 39, (S)-N-(3-(5-fluoro-2-((2-fluoro-3-(methylsulfonyl)phenyl)amino)pyrimidin-4-yl)-1H-indol-7-yl)-2-(4-methylpiperazin-1-yl)butanamide] here?
A: > 30000 nM

Q: And the IC50 [2]?
A: 446 nM

Q: What about the IC50 [3] of the same compound?
A: > 30000 nM

Q: What about the IC50 [4] of the same compound?
A: 256 nM

Q: `COC[C@@H](C(=O)Nc1cccc2c(-c3nc(Nc4cccc(S(C)(=O)=O)c4F)ncc3F)c[nH]c12)N1C[C@H](C)N(C)[C@@H](C)C1` [Example 40] was tested. Which IC50 [1] did it give?
A: > 30000 nM

Q: What about the IC50 [2] of the same compound?
A: > 6250 nM

Q: What about the IC50 [3] of the same compound?
A: > 30000 nM

Q: And the IC50 [4]?
A: 3280 nM

Q: What does the source list for `COC[C@H](C(=O)Nc1cccc2c(-c3nc(Nc4cccc(S(C)(=O)=O)c4F)ncc3F)c[nH]c12)N1C[C@H](C)N(C)[C@@H](C)C1` [Example 41, (R)-N-(3-(5-fluoro-2-((2-fluoro-3-(methylsulfonyl)phenyl)amino)pyrimidin-4-yl)-1H-indol-7-yl)-3-methoxy-2-((3S,5S)-3,4,5-trimethylpiperazin-1-yl)propanamide]?
A: IC50 [1]: 4820 nM; IC50 [2]: 58 nM; IC50 [3]: > 30000 nM; IC50 [4]: 3.95 nM

Q: `COC[C@H](C(=O)Nc1cccc2c(-c3nc(Nc4cccc(S(C)(=O)=O)c4F)ncc3C)c[nH]c12)N1CCCN(C)CC1` [Example 42, (R)-N-(3-(2-((2-fluoro-3-(methylsulfonyl)phenyl)amino)-5-methylpyrimidin-4-yl)-1H-indol-7-yl)-3-methoxy-2-(4-methyl-1,4-diazepan-1-yl) propanamide] was tested. Which IC50 [1] did it give?
A: 604 nM

Q: And the IC50 [2]?
A: 36 nM

Q: And the IC50 [3]?
A: > 30000 nM

Q: What about the IC50 [4] of the same compound?
A: < 3 nM

Q: Which IC50 [1] does the source give for `COC[C@@H](C(=O)Nc1cccc2c(-c3nc(Nc4cccc(S(C)(=O)=O)c4F)ncc3C)c[nH]c12)N1CCCN(C)CC1` [Example 43, (S)-N-(3-(2-((2-fluoro-3-(methylsulfonyl)phenyl)amino)-5-methylpyrimidin-4-yl)-1H-indol-7-yl)-3-methoxy-2-(4-methyl-1,4-diazepan-1-yl)propanamide] here?
A: > 30000 nM

Q: What about the IC50 [2] of the same compound?
A: 477 nM

Q: And the IC50 [3]?
A: > 30000 nM

Q: And the IC50 [4]?
A: 95 nM

Q: Which IC50 [1] does the source give for `COC[C@@H](C(=O)Nc1cccc2c(-c3nc(Nc4cccc(S(C)(=O)=O)c4F)ncc3F)c[nH]c12)N1CCCN(C)CC1` [Example 44, (S)-N-(3-(5-fluoro-2-((2-fluoro-3-(methylsulfonyl)phenyl)amino)pyrimidin-4-yl)-1H-indol-7-yl)-3-methoxy-2-(4-methyl-1,4-diazepan-1-yl)propanamide] here?
A: > 30000 nM

Q: And the IC50 [2]?
A: 3050 nM

Q: And the IC50 [3]?
A: > 30000 nM

Q: What about the IC50 [4] of the same compound?
A: 953 nM

Q: For `COC[C@H](C(=O)Nc1cccc2c(-c3nc(Nc4cccc(S(C)(=O)=O)c4F)ncc3F)c[nH]c12)N1CCCN(C)CC1` [Example 45, (R)-N-(3-(5-fluoro-2-((2-fluoro-3-(methylsulfonyl)phenyl)amino)pyrimidin-4-yl)-1H-indol-7-yl)-3-methoxy-2-(4-methyl-1,4-diazepan-1-yl)propanamide], which IC50 [1] is on record?
A: 718 nM

Q: And the IC50 [2]?
A: 36 nM

Q: What about the IC50 [3] of the same compound?
A: > 30000 nM

Q: And the IC50 [4]?
A: < 3 nM

Q: How did the IC50 [1] turn out when `C[C@H](C(=O)Nc1cccc2c(-c3nc(Nc4cccc(S(C)(=O)=O)c4F)ncc3F)c[nH]c12)N1CCCN(C)CC1` [Example 46, (R)-N-(3-(5-fluoro-2-((2-fluoro-3-(methylsulfonyl)phenyl)amino)pyrimidin-4-yl)-1H-indol-7-yl)-2-(4-methyl-1,4-diazepan-1-yl)propanamide] was run?
A: 17800 nM

Q: And the IC50 [2]?
A: 83 nM

Q: And the IC50 [3]?
A: > 30000 nM

Q: What about the IC50 [4] of the same compound?
A: 19.8 nM

Q: `Cc1cnc(Nc2cccc(S(C)(=O)=O)c2F)nc1-c1c[nH]c2c(NC(=O)[C@H](C)N3CCN(C)C[C@H]3C)cccc12` [Example 47, (S)-2-((R)-2,4-dimethylpiperazin-1-yl)-N-(3-(2-((2-fluoro-3-(methylsulfonyl)phenyl)amino)-5-methylpyrimidin-4-yl)-1H-indol-7-yl)propanamide] was tested. Which IC50 [1] did it give?
A: > 30000 nM

Q: What about the IC50 [2] of the same compound?
A: 619 nM

Q: What about the IC50 [3] of the same compound?
A: > 30000 nM

Q: What about the IC50 [4] of the same compound?
A: 180 nM

Q: How did the IC50 [1] turn out when `Cc1cnc(Nc2cccc(S(C)(=O)=O)c2F)nc1-c1c[nH]c2c(NC(=O)[C@@H](C)N3CCN(C)C[C@H]3C)cccc12` [Example 48, (R)-2-((R)-2,4-dimethylpiperazin-1-yl)-N-(3-(2-((2-fluoro-3-(methylsulfonyl)phenyl)amino)-5-methylpyrimidin-4-yl)-1H-indol-7-yl)propanamide] was run?
A: 8230 nM

Q: And the IC50 [2]?
A: 82 nM

Q: What about the IC50 [3] of the same compound?
A: > 30000 nM

Q: And the IC50 [4]?
A: 3 nM
